Results taken from US4122184A, “Benzimidazole insecticides” (priority 1977, dated 1978).

Experiments:
Boll Weevil [1] = assay: Boll Weevil Test; type: in vivo, Anthonomus grandis (Coleoptera); conditions: 48 h
Description: The procedure is identical to that employed for the Mexican bean beetle and the Southern armyworm, except that 10 adult boll weevils are placed on cotton leaves that have been dipped into formulations of the test compounds. The same rating scale is used.

Two-spotted Spider Mite = Two-spotted Spider Mite test; type: in vivo, Tetranychus urticae (Acarina); conditions: 25 ppm, 48 h
Procedure: The procedure in this test is the same as that in the previous aphid test, except that about 100 two-spotted spider mites from a stock colony raised on squash plants are transferred to a cut squash cotyledon. The mortality is estimated 48 hours after spraying. The same rating scale is used.

[2] = test system: Southern Corn Rootworm Adults; assay: Field trial, stomach poison test; type: in vivo
In short: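 Leaves from infested host plants were sprayed (atomizer, 10 psi) or dipped in compound solutions at several concentrations, air-dried, then placed in Petri dishes with five or ten insects each. One or two replicates, usually two or three rates; mortality read at 24, 48 and 72 h on a 0–9 scale.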

[3] = Solubility of sodium salt; type: physicochemical
Confused Flour Beetle = assay: Field trial (first summer), topical; type: in vivo; conditions: .3125 μg/μl
Procedure: (§1) In a variation of the above test, 1 microliter of a test solution containing a predetermined number of micrograms of benzimidazole was applied directly to larvae or adult insects.
(§2) During the previous summer similar field trials were conducted employing the same tests as heretofore but with some additional species of insects not included in the later tests. The results listed below are for tests in which an insect mortality was established by a given application route and at a given concentration in a particular test. The same 0 - 9 scoring system is used as is the designation of compounds by alphabetical symbols.

Picnic Beetle = assay: Field trial (first summer), topical; type: in vivo; conditions: .078125 μg/μl
Procedure: as §1, §2

[4] = test system: Southern Corn Rootworm Adults; assay: Field trial, contact poison test; type: in vivo
In short: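 Contact spray, atomizer 10 psi, arm's length, several concentrations; infested plants in water bottles, stems wrapped in cellucotton, plants spaced apart. Scored 24, 48, 72 h; scale 0–9 by percent mortality.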

Boll Weevil [5] = assay: Field trial (first summer), topical; type: in vivo, Anthonomus grandis; conditions: .078125 μg/μl
Procedure: as §1, §2

Oriental Cockroach = assay: Oriental Roach Test; type: in vivo, Blatta orientalis (Orthoptera); conditions: 24 h
Procedure: A rearing pan of late instar (3-4 months old) roaches is placed in a cold room for about 1 hour. Ten nymphs are taken from the pan and placed in each cage and the caged insects are kept at 70°-80° F. for 1 hour. The test cages are then sprayed in the manner indicated above in the milkweed bug test using 5 ml. of a formulation containing a specified amount of the insecticide. The test cages are held for 72 hours during which time the cockroaches are neither fed nor watered. Controls consist of 2 unsprayed cages, two cages sprayed with the formulation alone and 2 cages with a formulation containing 1000 ppm of heptachlor. Mortality counts are made 24 hours after spraying by shaking the cages lightly. All cockroaches remaining in the bottom are counted as dead.

House Fly = assay: Housefly (Contact) Test; type: in vivo, Musca domestica (Diptera); conditions: 50 ppm, 24 h
Procedure: Rearing cages containing four-day old adult house flies are chilled at 35°-40° F. for about 1 hour. One hundred flies are transferred from the rearing cage to each test cage using a small scoop. The caged flies are kept for 1-2 hours at 70°-80° F. The cages are sprayed in the same manner as described for the milkweed bug with 5 ml. of the test formulation. Two unsprayed cages are held as controls and two cages are sprayed with a 50 ppm DDT formulation as a reference standard. Mortality counts are made 24 hours after spraying. […] The same rating scale is employed as heretofore.

**Q.** For O=[N+]([O-])c1cc(C(F)(F)F)cc2nc(C(F)(F)F)[nH]c12.[Na] [B, 2,6-bis(trifluoromethyl)-4-nitrobenzimidazole, sodium salt], which mortality rating (Boll Weevil [1]; 25 ppm) is on record?
**A.** The mortality rating was 8.5.

**Q.** And the mortality rating (Boll Weevil [1]; 250 ppm)?
**A.** Its mortality rating is 8.5.

**Q.** What about the mortality rating (Two-spotted Spider Mite) of the same compound?
**A.** The mortality rating was 8.5.

**Q.** And the average mortality rating ([2]; 25 ppm)?
**A.** The average mortality rating was 4.

**Q.** What about the average mortality rating ([2]; 50 ppm) of the same compound?
**A.** The average mortality rating was 5.

**Q.** What about the average mortality rating ([2]; 100 ppm) of the same compound?
**A.** Its average mortality rating is 9 (91-100 percent mortality).

**Q.** And the solubility in acid ([3]; acid)?
**A.** Its solubility in acid is “insoluble in acid”.

**Q.** What about the solubility in water ([3]; water) of the same compound?
**A.** The solubility in water was “water soluble”.

**Q.** And the insect mortality rating (Confused Flour Beetle)?
**A.** The insect mortality rating was 9 (91-100 percent mortality).

**Q.** What about the insect mortality rating (Picnic Beetle) of the same compound?
**A.** The insect mortality rating was 9 (91-100 percent mortality).

**Q.** What about the average mortality rating ([4]; 25 ppm) of the same compound?
**A.** The average mortality rating was 0 (0-10 percent).

**Q.** What about the average mortality rating ([4]; 50 ppm) of the same compound?
**A.** The average mortality rating was 3.

**Q.** And the average mortality rating ([4]; 100 ppm)?
**A.** The average mortality rating was 8.

**Q.** What about the insect mortality rating (Boll Weevil [5]) of the same compound?
**A.** The insect mortality rating was 9 (91-100 percent mortality).

**Q.** What about the mortality rating (Oriental Cockroach; 25 ppm) of the same compound?
**A.** Its mortality rating is “.5”.

**Q.** What about the mortality rating (Oriental Cockroach; 100 ppm) of the same compound?
**A.** Its mortality rating is 3.5.

**Q.** And the mortality rating (House Fly)?
**A.** Its mortality rating is 8.5.
